Test results from PubChem BioAssay AID1963864 (Molecular Pharmacology Branch, DTP, NCI, 2024).

Test system: KRAS PDC multicell spheroid viability
Test: Anticancer human tumor 521955-158-R6-J3-PDC patient-derived pancreatic carcinoma cell line growth inhibition [KRAS2]
Settings: for IC50: curve of first compound; for viability, T/C: stronger effect = lower value
Method in brief: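 Combination screen of spheroid viability in tumor-cell co-cultures with endothelial (HUVEC) and mesenchymal stem cell stroma. Each agent was tested in half-log dilutions, topping at clinical Cmax or at 10 microM without a known Cmax.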

[1] = second compound 0.0316 µM, first compound 0.000316 µM
[2] = second compound 0.0316 µM, first compound 0.001 µM
[3] = second compound 0.0316 µM, first compound 0.00316 µM
[4] = second compound 0.0316 µM, first compound 0.01 µM
[5] = second compound 0.0316 µM, first compound 0.0316 µM
[6] = second compound 0.1 µM, first compound 0.000316 µM
[7] = second compound 0.1 µM, first compound 0.001 µM
[8] = second compound 0.1 µM, first compound 0.00316 µM
[9] = second compound 0.1 µM, first compound 0.01 µM
[10] = second compound 0.1 µM, first compound 0.0316 µM
[11] = second compound 0.316 µM, first compound 0.000316 µM
[12] = second compound 0.316 µM, first compound 0.001 µM
[13] = second compound 0.316 µM, first compound 0.00316 µM
[14] = second compound 0.316 µM, first compound 0.01 µM
[15] = second compound 0.316 µM, first compound 0.0316 µM
[16] = second compound 1 µM, first compound 0.000316 µM
[17] = second compound 1 µM, first compound 0.001 µM
[18] = second compound 1 µM, first compound 0.00316 µM
[19] = second compound 1 µM, first compound 0.01 µM
[20] = second compound 1 µM, first compound 0.0316 µM
[21] = second compound 3.16 µM, first compound 0.000316 µM
[22] = second compound 3.16 µM, first compound 0.001 µM
[23] = second compound 3.16 µM, first compound 0.00316 µM
[24] = second compound 3.16 µM, first compound 0.01 µM
[25] = second compound 3.16 µM, first compound 0.0316 µM
[26] = second compound 0.0316 µM, first compound 0.1 µM
[27] = second compound 0.1 µM, first compound 0.1 µM
[28] = second compound 0.316 µM, first compound 0.1 µM
[29] = second compound 1 µM, first compound 0.1 µM
[30] = second compound 3.16 µM, first compound 0.1 µM
[31] = second compound 0.0316 µM, first compound 0.316 µM
[32] = second compound 0.0316 µM, first compound 1 µM
[33] = second compound 0.0316 µM, first compound 3.16 µM
[34] = second compound 0.0316 µM, first compound 10 µM
[35] = second compound 0.1 µM, first compound 0.316 µM
[36] = second compound 0.1 µM, first compound 1 µM
[37] = second compound 0.1 µM, first compound 3.16 µM
[38] = second compound 0.1 µM, first compound 10 µM
[39] = second compound 0.316 µM, first compound 0.316 µM
[40] = second compound 0.316 µM, first compound 1 µM
[41] = second compound 0.316 µM, first compound 3.16 µM
[42] = second compound 0.316 µM, first compound 10 µM
[43] = second compound 1 µM, first compound 0.316 µM
[44] = second compound 1 µM, first compound 1 µM
[45] = second compound 1 µM, first compound 3.16 µM
[46] = second compound 1 µM, first compound 10 µM
[47] = second compound 3.16 µM, first compound 0.316 µM
[48] = second compound 3.16 µM, first compound 1 µM
[49] = second compound 3.16 µM, first compound 3.16 µM
[50] = second compound 3.16 µM, first compound 10 µM
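Also: drug exposure lasted seven days.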
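For viability, T/C in this document: 100% = DMSO vehicle wells and lower means fewer viable cells.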

CC(=O)Nc1cccc(-n2c(=O)n(C3CC3)c(=O)c3c(Nc4ccc(I)cc4F)n(C)c(=O)c(C)c32)c1 + C=CC(=O)N1CCN(c2nc(OCC3CCCN3C)nc3c2CCN(c2cccc4cccc(C)c24)C3)CC1CC#N
IC50 (second compound 0.0316 µM): > 31.6 nM | IC50 (second compound 0.1 µM): 28.4 nM | IC50 (second compound 0.316 µM): 21.2 nM | IC50 (second compound 1 µM): 9.67 nM | IC50 (second compound 3.16 µM): < 0.1 nM | viability, T/C (second compound 0.0316 µM, first compound 0.0001 µM): 109% | viability, T/C [1]: 109% | viability, T/C [2]: 108% | viability, T/C [3]: 83.2% | viability, T/C [4]: 83.9% | viability, T/C [5]: 52.8% | viability, T/C (second compound 0.1 µM, first compound 0.0001 µM): 93.1% | viability, T/C [6]: 111% | viability, T/C [7]: 100% | viability, T/C [8]: 81.4% | viability, T/C [9]: 76.8% | viability, T/C [10]: 46.8% | viability, T/C (second compound 0.316 µM, first compound 0.0001 µM): 89.4% | viability, T/C [11]: 96% | viability, T/C [12]: 101% | viability, T/C [13]: 83.9% | viability, T/C [14]: 66.8% | viability, T/C [15]: 41.2% | viability, T/C (second compound 1 µM, first compound 0.0001 µM): 72.4% | viability, T/C [16]: 72.4% | viability, T/C [17]: 87.1% | viability, T/C [18]: 65.4% | viability, T/C [19]: 50.9% | viability, T/C [20]: 38% | viability, T/C (second compound 3.16 µM, first compound 0.0001 µM): 40.3% | viability, T/C [21]: 52.7% | viability, T/C [22]: 24.4% | viability, T/C [23]: 29.1% | viability, T/C [24]: 2.14% | viability, T/C [25]: 8.79%

CN(C)C/C=C/C(=O)Nc1cc2c(Nc3ccc(F)c(Cl)c3)ncnc2cc1O[C@H]1CCOC1 + C=CC(=O)N1CCN(c2nc(OCC3CCCN3C)nc3c2CCN(c2cccc4cccc(C)c24)C3)CC1CC#N
IC50 (second compound 0.0316 µM): > 100 nM | IC50 (second compound 0.1 µM): > 100 nM | IC50 (second compound 0.316 µM): > 100 nM | IC50 (second compound 1 µM): > 100 nM | IC50 (second compound 3.16 µM): < 0.316 nM | viability, T/C [1]: 108% | viability, T/C [2]: 92.2% | viability, T/C [3]: 81.8% | viability, T/C [4]: 72.4% | viability, T/C [5]: 66% | viability, T/C [26]: 66.8% | viability, T/C [6]: 97.2% | viability, T/C [7]: 93.8% | viability, T/C [8]: 89.6% | viability, T/C [9]: 64.7% | viability, T/C [10]: 72.4% | viability, T/C [27]: 61.8% | viability, T/C [11]: 99.9% | viability, T/C [12]: 92.2% | viability, T/C [13]: 91% | viability, T/C [14]: 78.7% | viability, T/C [15]: 68% | viability, T/C [28]: 67.6% | viability, T/C [16]: 91.9% | viability, T/C [17]: 93.4% | viability, T/C [18]: 81.3% | viability, T/C [19]: 63.4% | viability, T/C [20]: 64.1% | viability, T/C [29]: 64.5% | viability, T/C [21]: 48.5% | viability, T/C [22]: 32.9% | viability, T/C [23]: 15.2% | viability, T/C [24]: 12.7% | viability, T/C [25]: 12.8% | viability, T/C [30]: 23.1%

COC(=O)c1ccc2c(C(=Nc3ccc(N(C)C(=O)CN4CCN(C)CC4)cc3)c3ccccc3)c(O)[nH]c2c1 + C=CC(=O)N1CCN(c2nc(OCC3CCCN3C)nc3c2CCN(c2cccc4cccc(C)c24)C3)CC1CC#N
IC50 (second compound 0.0316 µM): 3090 nM | IC50 (second compound 0.1 µM): 2840 nM | IC50 (second compound 0.316 µM): 2840 nM | IC50 (second compound 1 µM): 1830 nM | IC50 (second compound 3.16 µM): < 31.6 nM | viability, T/C [5]: 96.2% | viability, T/C [26]: 110% | viability, T/C [31]: 116% | viability, T/C [32]: 123% | viability, T/C [33]: 48.8% | viability, T/C [34]: 0.2% | viability, T/C [10]: 91.8% | viability, T/C [27]: 116% | viability, T/C [35]: 102% | viability, T/C [36]: 111% | viability, T/C [37]: 44.3% | viability, T/C [38]: 1.53% | viability, T/C [15]: 79.7% | viability, T/C [28]: 102% | viability, T/C [39]: 103% | viability, T/C [40]: 106% | viability, T/C [41]: 45.1% | viability, T/C [42]: 1.91% | viability, T/C [20]: 74.3% | viability, T/C [29]: 75.5% | viability, T/C [43]: 90.2% | viability, T/C [44]: 95.4% | viability, T/C [45]: 19.1% | viability, T/C [46]: 1.01% | viability, T/C [25]: 36.9% | viability, T/C [30]: 31.4% | viability, T/C [47]: 37.8% | viability, T/C [48]: 5.71% | viability, T/C [49]: 1.1% | viability, T/C [50]: 0.76%

O=C(c1cc(Cc2n[nH]c(=O)c3ccccc23)ccc1F)N1CCN(C(=O)C2CC2)CC1 + C=CC(=O)N1CCN(c2nc(OCC3CCCN3C)nc3c2CCN(c2cccc4cccc(C)c24)C3)CC1CC#N
IC50 (second compound 0.0316 µM): > 10000 nM | IC50 (second compound 0.1 µM): > 10000 nM | IC50 (second compound 0.316 µM): > 10000 nM | IC50 (second compound 1 µM): > 10000 nM | IC50 (second compound 3.16 µM): < 31.6 nM | viability, T/C [5]: 90% | viability, T/C [26]: 97% | viability, T/C [31]: 96.7% | viability, T/C [32]: 96.4% | viability, T/C [33]: 89.4% | viability, T/C [34]: 111% | viability, T/C [10]: 97.9% | viability, T/C [27]: 96.4% | viability, T/C [35]: 97.5% | viability, T/C [36]: 83.5% | viability, T/C [37]: 87.5% | viability, T/C [38]: 101% | viability, T/C [15]: 97.5% | viability, T/C [28]: 107% | viability, T/C [39]: 103% | viability, T/C [40]: 84.9% | viability, T/C [41]: 87.3% | viability, T/C [42]: 93.6% | viability, T/C [20]: 89.9% | viability, T/C [29]: 95.3% | viability, T/C [43]: 79% | viability, T/C [44]: 73.4% | viability, T/C [45]: 86.2% | viability, T/C [46]: 90.5% | viability, T/C [25]: 42.9% | viability, T/C [30]: 31.2% | viability, T/C [47]: 24.1% | viability, T/C [48]: 24.4% | viability, T/C [49]: 39.9% | viability, T/C [50]: 12.4%
